The values that follow come from patent publication US10335409B2 (priority 2012, dated 2019).

Each structure is given as a SMILES string.

In experiment [1] the target is HCV NS3 protease domain genotype 1b (Hepatitis C virus genotype 1b (isolate Con1), UniProt Q9WMX2, E1202G). Briefly: Ki determination, NS3 protease genotype 1b (fluorogenic depsipeptide substrate). The class given is biochemical. As to conditions: 50 pM enzyme, NS4A peptide.
For experiment [2], the target named is HCV NS3 protease domain genotype 3a (Hepatitis C virus genotype 3a, UniProt Q81258). Briefly: Ki determination, NS3 protease genotype 3a (fluorogenic depsipeptide substrate). The class given is biochemical. As to conditions: 200 pM enzyme, NS4A peptide. The essentials: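 The NS3 protease domain (aa 1-181) with 20 μM NS4A peptide was used at 50 pM with 4 μM substrate (1b) or at 200 pM with 2 μM substrate (3a). Inhibitors (100 nM-5 pM) were pre-incubated 1 h at room temperature in HEPES/glycerol/DTT buffer with 10% DMSO. Steady-state rates (90-120 min) gave Ki via the Morrison equation, corrected for active enzyme and [S]/Km.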

Experiment [3] deals with genotype 1a (H77) stable HCV replicon in Huh-7-derived cells. Briefly: Stable subgenomic HCV replicon EC50, genotype 1a (Renilla luciferase). The class given is cell-based, hepatitis C virus. To be noted: Hepatitis C virus, stable replicon genotype 1a, 72 h, read-out: EC50 1A RLUC. The method, boiled down: (§1)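 Compounds, three-fold diluted, were applied to Huh-7-derived cells harbouring luciferase replicons (genotype 1a H77, 1b Con1, 2a JFH-1, 4a ED43, with strain-specific adaptive mutations). Seventy-two hours later, intracellular replication was gauged by Renilla luciferase activity and EC50 derived by regression.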

In experiment [4] the test system is genotype 1b (Con1) stable HCV replicon in Huh-7-derived cells. Briefly: Stable subgenomic HCV replicon EC50, genotype 1b (Renilla luciferase). The experiment is classed as cell-based, hepatitis C virus. To be noted: Hepatitis C virus, stable replicon genotype 1b, 72 h, read-out: EC50 1B RLUC. The method, boiled down: as §1
Experiment [5] concerns genotype 2a (JFH-1) stable HCV replicon in Huh-7-derived cells. Briefly: Stable subgenomic HCV replicon EC50, genotype 2a (Renilla luciferase). The experiment is classed as cell-based, hepatitis C virus. To be noted: Hepatitis C virus, stable replicon genotype 2a, 72 h, read-out: EC50 2A RLUC. The method, boiled down: as §1
(In antiviral work, replicon cells carry a viral genome segment that copies itself.)

The test system of experiment [6] is genotype 3a (S52) stable HCV replicon in Huh-7-derived cells. Briefly: Stable subgenomic HCV replicon EC50, genotype 3a (Renilla luciferase). To be noted: Hepatitis C virus, 72 h, read-out: EC50 3A RLUC. The experiment is classed as cell-based, hepatitis C virus.
Experiment [7] relates to genotype 4a (ED43) stable HCV replicon in Huh-7-derived cells. Briefly: Stable subgenomic HCV replicon EC50, genotype 4a (Renilla luciferase). The class given is cell-based, hepatitis C virus. As to conditions: Hepatitis C virus, 72 h, read-out: EC50 4A RLUC. The essentials: as §1
The test system of experiment [8] is genotype 3a (S52) wild type transient HCV replicon in Huh-7-derived cells. Briefly: Transient-transfected HCV replicon EC50, genotype 3a wild type. The experiment is classed as cell-based, hepatitis C virus. As to conditions: Hepatitis C virus; transient-transfected replicon genotype 3a wild type, 72 h; read-out: EC50 3A WT.
The subject of experiment [9] is genotype 1a (H77) wild type transient HCV replicon in Huh-7-derived cells. Briefly: Transient-transfected HCV replicon EC50, genotype 1a wild type. The class given is cell-based, hepatitis C virus. To be noted: Hepatitis C virus, 72 h, transient-transfected replicon genotype 1a wild type, read-out: EC50 1A WT.
The subject of experiment [10] is genotype 1a NS3/4a protease inhibitor resistant variant R155K transient HCV replicon in Huh-7-derived cells. Briefly: Transient-transfected HCV replicon EC50, genotype 1a R155K. The experiment is classed as cell-based, hepatitis C virus. As to conditions: Hepatitis C virus, 72 h, read-out: EC50 1A R155K, transient-transfected replicon genotype 1a R155K resistant variant, 72 h.

The subject of experiment [11] is genotype 1b (Con1) wild type transient HCV replicon in Huh-7-derived cells. Briefly: Transient-transfected HCV replicon EC50, genotype 1b wild type. As to conditions: Hepatitis C virus, 72 h, transient-transfected replicon genotype 1b wild type, read-out: EC50 1B WT. The experiment is classed as cell-based, hepatitis C virus.
The subject of experiment [12] is genotype 1b NS3/4a protease inhibitor resistant variant D168A transient HCV replicon in Huh-7-derived cells. Briefly: Transient-transfected HCV replicon EC50, genotype 1b D168A. To be noted: Hepatitis C virus, 72 h, read-out: EC50 1B D168A, transient-transfected replicon genotype 1b D168A resistant variant, 72 h. The class given is cell-based, hepatitis C virus.

HCV NS3 protease domain genotype 1b, sequence (Q9WMX2 1027-1208 E1202G): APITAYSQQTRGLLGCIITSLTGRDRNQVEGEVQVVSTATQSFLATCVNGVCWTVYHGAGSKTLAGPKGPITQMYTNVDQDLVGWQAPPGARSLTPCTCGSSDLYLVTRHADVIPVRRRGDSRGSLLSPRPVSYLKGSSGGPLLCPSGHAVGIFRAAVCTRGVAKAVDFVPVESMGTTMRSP
HCV NS3 protease domain genotype 3a, sequence (Q81258 whole entry, looked up, the tested form may be a part): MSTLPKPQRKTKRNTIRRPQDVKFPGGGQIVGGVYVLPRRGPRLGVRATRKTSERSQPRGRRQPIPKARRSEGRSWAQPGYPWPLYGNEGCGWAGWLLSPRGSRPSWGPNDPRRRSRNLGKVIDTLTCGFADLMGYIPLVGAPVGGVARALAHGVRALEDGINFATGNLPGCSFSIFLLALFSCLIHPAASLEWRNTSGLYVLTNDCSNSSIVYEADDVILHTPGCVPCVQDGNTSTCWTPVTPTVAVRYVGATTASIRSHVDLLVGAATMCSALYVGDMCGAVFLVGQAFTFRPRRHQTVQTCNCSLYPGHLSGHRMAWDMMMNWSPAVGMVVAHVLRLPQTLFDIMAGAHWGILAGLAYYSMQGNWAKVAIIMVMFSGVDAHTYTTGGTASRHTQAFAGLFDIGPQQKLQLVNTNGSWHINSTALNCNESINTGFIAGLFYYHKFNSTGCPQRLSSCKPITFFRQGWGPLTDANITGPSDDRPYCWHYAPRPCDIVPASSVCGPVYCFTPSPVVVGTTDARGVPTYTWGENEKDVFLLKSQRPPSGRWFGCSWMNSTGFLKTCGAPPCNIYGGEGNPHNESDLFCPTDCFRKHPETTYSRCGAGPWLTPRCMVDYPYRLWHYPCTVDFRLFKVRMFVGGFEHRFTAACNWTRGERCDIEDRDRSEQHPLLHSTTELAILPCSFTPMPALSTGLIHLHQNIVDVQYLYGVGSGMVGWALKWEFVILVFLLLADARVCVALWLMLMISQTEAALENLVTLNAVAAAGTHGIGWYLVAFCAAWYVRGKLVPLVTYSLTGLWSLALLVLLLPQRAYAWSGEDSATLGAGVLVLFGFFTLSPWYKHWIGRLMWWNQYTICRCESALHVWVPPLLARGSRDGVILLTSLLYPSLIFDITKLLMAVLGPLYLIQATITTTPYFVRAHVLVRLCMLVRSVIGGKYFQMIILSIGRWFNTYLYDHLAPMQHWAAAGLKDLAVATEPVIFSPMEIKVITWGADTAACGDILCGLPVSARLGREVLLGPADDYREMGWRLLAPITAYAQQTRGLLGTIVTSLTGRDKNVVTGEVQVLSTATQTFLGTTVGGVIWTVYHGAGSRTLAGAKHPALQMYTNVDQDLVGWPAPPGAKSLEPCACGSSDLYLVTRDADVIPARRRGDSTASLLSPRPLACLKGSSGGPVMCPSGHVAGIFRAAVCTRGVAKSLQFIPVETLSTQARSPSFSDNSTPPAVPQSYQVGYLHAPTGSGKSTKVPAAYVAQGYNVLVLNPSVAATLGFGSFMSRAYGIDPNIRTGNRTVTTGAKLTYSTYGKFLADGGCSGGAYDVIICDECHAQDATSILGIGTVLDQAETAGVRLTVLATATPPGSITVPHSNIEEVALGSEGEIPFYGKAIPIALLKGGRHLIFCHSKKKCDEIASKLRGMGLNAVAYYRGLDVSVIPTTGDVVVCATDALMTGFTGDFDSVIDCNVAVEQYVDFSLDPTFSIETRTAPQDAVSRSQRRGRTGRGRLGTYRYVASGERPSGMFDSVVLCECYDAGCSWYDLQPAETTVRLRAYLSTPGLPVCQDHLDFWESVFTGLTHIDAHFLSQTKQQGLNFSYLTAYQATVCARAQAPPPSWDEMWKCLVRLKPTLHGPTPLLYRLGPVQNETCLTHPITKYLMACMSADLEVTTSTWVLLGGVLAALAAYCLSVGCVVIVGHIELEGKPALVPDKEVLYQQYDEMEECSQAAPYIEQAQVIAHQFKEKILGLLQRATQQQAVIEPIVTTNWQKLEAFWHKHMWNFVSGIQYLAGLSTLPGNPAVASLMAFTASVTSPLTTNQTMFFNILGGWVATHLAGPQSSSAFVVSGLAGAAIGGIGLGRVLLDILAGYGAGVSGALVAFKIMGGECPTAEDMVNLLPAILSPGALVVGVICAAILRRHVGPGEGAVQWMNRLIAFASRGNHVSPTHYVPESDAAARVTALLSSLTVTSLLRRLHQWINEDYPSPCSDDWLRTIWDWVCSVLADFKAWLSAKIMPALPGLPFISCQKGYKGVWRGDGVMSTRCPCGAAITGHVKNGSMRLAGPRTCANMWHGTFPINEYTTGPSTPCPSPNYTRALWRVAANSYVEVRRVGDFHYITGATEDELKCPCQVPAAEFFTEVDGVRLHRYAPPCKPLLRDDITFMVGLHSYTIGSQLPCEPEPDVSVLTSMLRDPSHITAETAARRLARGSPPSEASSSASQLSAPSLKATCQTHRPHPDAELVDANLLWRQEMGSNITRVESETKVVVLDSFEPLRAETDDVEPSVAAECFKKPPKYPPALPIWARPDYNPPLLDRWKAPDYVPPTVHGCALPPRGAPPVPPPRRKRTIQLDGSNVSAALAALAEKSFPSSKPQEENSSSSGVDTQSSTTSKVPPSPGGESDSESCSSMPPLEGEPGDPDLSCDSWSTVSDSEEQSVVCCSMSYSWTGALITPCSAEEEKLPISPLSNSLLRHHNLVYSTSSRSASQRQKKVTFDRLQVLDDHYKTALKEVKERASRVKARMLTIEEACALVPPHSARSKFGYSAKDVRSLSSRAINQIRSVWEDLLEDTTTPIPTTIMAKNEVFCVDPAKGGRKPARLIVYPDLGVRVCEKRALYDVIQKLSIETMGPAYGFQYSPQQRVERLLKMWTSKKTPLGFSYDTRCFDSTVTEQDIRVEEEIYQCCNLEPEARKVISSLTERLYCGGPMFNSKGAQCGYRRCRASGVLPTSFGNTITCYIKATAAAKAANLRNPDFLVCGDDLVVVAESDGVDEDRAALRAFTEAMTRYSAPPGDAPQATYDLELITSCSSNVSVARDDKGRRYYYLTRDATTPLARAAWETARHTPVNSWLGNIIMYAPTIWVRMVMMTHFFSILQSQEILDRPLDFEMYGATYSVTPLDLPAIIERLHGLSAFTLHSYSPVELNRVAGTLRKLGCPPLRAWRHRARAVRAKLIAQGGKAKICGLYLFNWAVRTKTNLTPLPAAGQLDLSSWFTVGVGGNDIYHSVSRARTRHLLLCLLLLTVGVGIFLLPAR

A word on the Ki: it is a measure of affinity in units of concentration, obtained from inhibition or displacement. Low readings indicate higher affinity, high ones lower affinity. A word on the EC50: it is the midpoint of the concentration-response curve. Take `CCC[C@@H]1[C@@H]2CN(C(=O)[C@H](C(C)(C)C)NC(=O)O[C@@H]3C[C@H]3CCCCC(F)(F)c3nc4ccc(OC)cc4nc3O2)[C@@H]1C(=O)N[C@]1(C(=O)NS(=O)(=O)C2CC2)C[C@H]1C(F)F` [Example 60, (1aR,5S,8S,9S,10R,22aR)-5-tert-butyl-N-[(1R,2R)-1-[(cyclopropylsulfonyl)carbamoyl]-2-(difluoromethyl)cyclopropyl]-18,18-difluoro-14-methoxy-3,6-dioxo-9-propyl-1,1a,3,4,5,6,9,10,18,19,20,21,22,22a-tetradecahydro-8H-7,10-methanocyclopropa[18,19][1,10,3,6]dioxadiazacyclononadecino[11,12-b]quinoxaline-8-carboxamide]: the Ki amounted to 0.04 nM in [1] and 0.08 nM in experiment [2]. Moreover, the EC50 in experiment [3] amounted to 11 nM; in experiment [4], 4.8 nM; in [5] it was 7.7 nM; in [6] it was 45 nM; in [7], 5.4 nM; in experiment [8], 9.8 nM. For the same compound, the EC50 is 5.8 nM in experiment [9], 8.6 nM in [10], 2.3 nM in experiment [11] and 15 nM in [12].
